≈ marks a conversion by molar mass, not a printed value. Like-named read-outs stand apart in the source and are kept apart here.
Assays:
Two-Spotted Spider Mite = assay: Biological Method D: Foliar Insecticidal Activity Test, mite test; assay type: in vivo, Tetranychus urticae; design: key to LC50 TSM: I = inactive at concentration listed; settings: for LC50: Tetranychus urticae
Experimental: (§1) Biological Method D: Foliar Insecticidal Activity Test
(§2) In evaluating the foliar insecticidal activity of the compounds of this invention against insects and mites, the following test procedures were employed.
(§3) Not all compounds were tested at each of the several concentrations stated above. Test concentrations of a compound were selected as those most likely to differentiate dose response of a particular compound toward a particular test insect.
(§4) Initial evaluations were made on one or more of the following pests:
For the mite test, infested bean (Phaseolus limensis var. Woods Prolific) leaf discs [3.18 cm (1.25") in diameter] containing about 50 mites were placed in a Petri dish lid on a moistened piece of cotton. The leaves were then sprayed to thorough wetness with the test solution using a rotating turntable, held for twenty-four hours and then the percentage killed was determined.
(§5) The mortalities obtained in this manner were plotted on logarithmic probability paper.
(§6) The rotating turntable consists of a fixed, continuously operating spray nozzle under which targets are rotated at a fixed speed and distance. If the target is a Petri dish (such as for the bean beetle, armyworm, mite, or aphid tests), the distance from the nozzle is 38.1 cm (15 inches). If the target is a Mason jar (such as for the boll weevil test), the distance from the nozzle is 17.8 cm (7 inches). The nozzle is located 8 inches from the rotating shaft. The targets on individual platforms revolve around the shaft at 1 revolution per 20 seconds but only a brief portion of this time occurs in the spray path. Targets pass only once under the nozzle and then are removed to drying hoods.
(§7) The nozzle used is a 1/4 JCO Spraying Systems (Wheaton, Illinois) air atomizing nozzle equipped with a No. 2850 fluid cap and a No. 70 air cap. At the 68.95 x 10³ Pa gauge (10 psig) air pressure used and with liquid siphon feed, 1.89 ℓ/hr [0.5 GPH (gallons per hour)] are delivered in a round spray pattern with a 21 degree spray angle. Targets are misted with spray droplets to the point that the droplets coalesce to form a uniform thin film insufficient to drown test organisms.

Southern Armyworm [1] = assay: Biological Method D: Foliar Insecticidal Activity Test, Southern Armyworm test; assay type: in vivo, Spodoptera eridania; design: key: I = inactive at concentration listed
Experimental: as §1, §2, §3, §4
(§8) For the Mexican Bean Beetle and Southern armyworm tests, individual lima bean (Phaseolus limeniss var. Woods' Prolific) leaves were placed on moistened pieces of filter paper in Petri dishes. The leaves were then sprayed with the test solution using a rotating turntable and allowed to dry. The dishes were then infested with 10 third instar larvae of either the Mexican Been Beetle or the Southern Armyworm. The dishes were then covered. Percent mortality was determined for each species and spray concentration at 48 and 96 hours after treatment.
as §5, §6, §7

[2] = tested on: southern corn rootworm, Diabrotica undecimpunctata howardi; assay: Biological Method A: Corn Rootworm Screening Test (treated non-aggressive soil); settings: soil concentration giving 90% mortality, 10 days at 27°C
Boll Weevil [3] = assay: Biological Method D: Foliar Insecticidal Activity Test, boll weevil test; assay type: in vivo, Anthonomous grandis; design: key: I = inactive at concentration listed
Experimental: as §1, §2, §3, §4
(§9) For the boll weevil test, 10 adult weevils were placed in a 0.24 ℓ (0.5 pint) glass Mason jar containing a small cube of apple. The weevils were confined to the jar by fiberglass screen mesh secured by a screw-type rim cap. The jars were then sprayed with the test solution using a rotating turntable; directing the spray through the mesh into the jar. The percentage killed was determined after forty-eight and ninety six hours.
as §5, §6, §7

[4] = tested on: southern corn rootworm, Diabrotica undecimpunctata howardi; settings: percent control relative to infested check, from root damage ratings; 14 days post-spraying
Mexican Bean Beetle = assay: Biological Method D: Foliar Insecticidal Activity Test, Mexican Bean Beetle test; assay type: in vivo, Epilachna varivestis; settings: Epilachna varivestis
Experimental: as §1, §2, §3, §4, §8, §5, §6, §7

Green Peach Aphid [5] = assay: Biological Method D: Foliar Insecticidal Activity Test, aphid test; assay type: in vivo, Myzus persicae; design: key: I = inactive at concentration listed
Experimental: as §1, §2, §3, §4
(§10) For the aphid test, infested broccoli (Brassica oleracea italica var. DiCicco) leaves containing about 50 aphids were placed in a Petri dish lid on a moistened piece of cotton. The leaves were then sprayed to thorough wetness with the test solution using a rotating turntable, held for twenty-four hours and then the percentage killed was determined.
as §5, §6, §7

Green Peach Aphid [6] = assay: as above; assay type: in vivo, Myzus persicae; settings: foliar spray; kill after twenty-four hours
Experimental: as §1, §2, §3, §4, §10, §5, §6, §7

[7] = tested on: southern corn rootworm, Diabrotica undecimpunctata howardi; settings: at-planting soil application
Southern Armyworm [8] = assay: Biological Method D: Foliar Insecticidal Activity Test, Southern Armyworm test; assay type: in vivo, Spodoptera eridania; settings: foliar spray; for AW 48 hrs LC50: 48 hours after treatment; for AW 96 hrs LC50: 96 hours after treatment
Experimental: as §1, §2, §3, §4, §8, §5, §6, §7

Boll Weevil [9] = assay: Biological Method D: Foliar Insecticidal Activity Test, boll weevil test; assay type: in vivo, Anthonomous grandis; settings: spray into jar
Experimental: as §1, §2, §3, §4, §9, §5, §6, §7

[10] = Method D foliar test, Two-Spotted Spider Mite, read-out: LC50 TSM
[11] = Method D foliar test, Mexican Bean Beetle, 96 hrs, read-out: LC50 BB 96 hrs
[12] = foliar spray, kill after twenty-four hours
[13] = foliar spray, 48 hours after treatment, read-out: BB 48 hrs. LC50
[14] = foliar spray, 96 hours after treatment, read-out: BB 96 hrs LC50
[15] = Method D foliar test, Mexican Bean Beetle, 48 hrs, read-out: LC50 BB 48 hrs.

SMILES | LC50 (Two-Spotted Spider Mite; [10]) | LC50 AW 48 hrs (Southern Armyworm [1]) | LC50 AW 96 hrs (Southern Armyworm [1]) | primary nonagressive Method A crw LC90 [2] | LC50 BW 48 hrs (Boll Weevil [3]) | LC50 BW 96 hrs (Boll Weevil [3]) | foliar systemic nonagressive Method B crw % control at 0.56 kg/ha (0.5 lb/acre) [4] | LC50 GPA (Green Peach Aphid [5]) | GPA LC50 (Green Peach Aphid [6]) | secondary aggressive Method C crw LC50 ([7]; rated 17 days post-infestation) | secondary aggressive Method C crw LC50 ([7]; value in brackets) | AW 48 hrs LC50 (Southern Armyworm [8]) | LC50 (Mexican Bean Beetle; [13]) | LC50 (Mexican Bean Beetle; [14]) | LC50 (Mexican Bean Beetle; [15]) | other results
C=CCOP(=S)(NNP(=S)(OCC)OCC)OCC (stereo not drawn) [Compound 10] | 510 µg/mL (≈ 1460 µM) | I | I | 0.79 ppm | I | I | 34% | I | – | – | – | – | – | – | – | LC50 (Mexican Bean Beetle; [11]): 78 µg/mL (≈ 224 µM)
CCCCNP(=S)(NNP(=S)(OCC)OCC)OCC (stereo not drawn) [Compound 74] | – | – | – | 1.1 ppm | – | – | – | – | I | 1.03 kg/ha | 0.92 lb/acre | I | 740 µg/mL (≈ 2040 µM) | 380 µg/mL (≈ 1050 µM) | – | TSM LC50 (Two-Spotted Spider Mite; [12]): I; AW 96 hrs LC50 (Southern Armyworm [8]): I; BW 48 hrs LC50 (Boll Weevil [9]): I; BW 96 hrs LC50 (Boll Weevil [9]): I
CCOP(=S)(NNP(=S)(OCC)OC(C)CC)OC(C)CC (stereo not drawn) [Compound 65, N-(O-ethyl O-secbutylthiophosphoryl) N′-(O-ethyl O-secbutylthiophosphoryl) hydrazine, reference compound] | – | – | – | 0.09 ppm | – | – | – | – | I | 0.44 kg/ha | 0.39 lb/acre | I | 360 µg/mL (≈ 917 µM) | 62 µg/mL (≈ 158 µM) | – | LC50 (Two-Spotted Spider Mite; 24 h, foliar spray, kill after twenty-four hours, read-out: TSM LC50): 245 µg/mL (≈ 624 µM); AW 96 hrs LC50 (Southern Armyworm [8]): I; BW 48 hrs LC50 (Boll Weevil [9]): I; BW 96 hrs LC50 (Boll Weevil [9]): I
CCCOP(=S)(NNP(=S)(OCC)OC(C)C)OCCC (stereo not drawn) [Compound 82] | – | – | – | 0.7 ppm | – | – | – | – | I | 0.95 kg/ha | 0.85 lb/acre | I | 500 µg/mL (≈ 1320 µM) | 150 µg/mL (≈ 396 µM) | – | TSM LC50 (Two-Spotted Spider Mite; [12]): I
C#CCOP(=S)(NNP(=S)(OCC)OCC)OCC (stereo not drawn) [Compound 12] | – | I | I | 0.56 ppm | I | I | 30% | I | – | – | – | – | – | – | 150 µg/mL (≈ 433 µM) | LC50 TSM (Two-Spotted Spider Mite; Method D foliar test, Two-Spotted Spider Mite): I; LC50 (Mexican Bean Beetle; [11]): 62 µg/mL (≈ 179 µM)
CCOP(=S)(NNP(=S)(OCC)OC(C)C)OCC (stereo not drawn) [Compound 5] | 150 µg/mL (≈ 428 µM) | I | I | <0.1 ppm | I | I | 69% | I | – | – | – | – | – | – | 740 µg/mL (≈ 2110 µM) | –
CCCCOP(=S)(NNP(=S)(OCC)OCC)OCC (stereo not drawn) [Compound 7] | 150 µg/mL (≈ 412 µM) | I | I | 0.25 ppm | I | I | 38% | I | – | – | – | – | – | – | – | –
CCCOP(=S)(NNP(=S)(OCC)OCC)OCC (stereo not drawn) [Compound 6] | 150 µg/mL (≈ 428 µM) | I | I | <0.1 ppm | I | I | 3% | I | – | – | – | – | – | – | 420 µg/mL (≈ 1200 µM) | –

Source: EP0437336B1, “Biophosphoryl hydrazines and their use as pesticides” (priority 1990, dated 1991)
